In general, stoichiometry N refers to a count of units in the complex or per binding partner.

Experiment [1] addresses T1, EaEST (Exiguobacterium antarcticum, UniProt A0ABF7PFX0).
T1 construct: gene Eab7_1456; recombinant from pET-21a in E. coli BL21(DE3), purified on His-Trap Ni-NTA, no tag removal told; two protomers in the asymmetric unit (542 residues modelled); catalytic triad Ser96, Asp220, His248
T1 sequence (A0ABF7PFX0 1-272): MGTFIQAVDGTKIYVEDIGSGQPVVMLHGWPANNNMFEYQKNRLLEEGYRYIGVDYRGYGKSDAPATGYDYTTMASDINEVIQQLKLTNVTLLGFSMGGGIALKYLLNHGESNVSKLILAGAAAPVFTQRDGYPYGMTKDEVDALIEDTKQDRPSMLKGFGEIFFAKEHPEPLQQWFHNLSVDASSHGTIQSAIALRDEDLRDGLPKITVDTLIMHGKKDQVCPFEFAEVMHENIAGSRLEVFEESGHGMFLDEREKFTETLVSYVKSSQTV
The experiment is described as follows: X-ray crystal structure, […] Å. Particulars: crystals from 0.2 M ammonium acetate, pH 7.5, no ligand added; active site, ligand assigned from electron density. In kind it is binding.

For experiment [2], the target named is esterase (EaEST) from Exiguobacterium antarcticum B7 (Exiguobacterium antarcticum B7). Briefly: AUC; sedimentation velocity, 20°C, 2 mg/ml EaEST in 25 mM Tris-HCl pH 8.0, 200 mM NaCl, 5 mM MgCl2, 2 mM DTT; 45,000 rpm; c(s) with SEDFIT.

Regarding `CC(=O)OO` [peracetate], in experiment [1], the “X-ray crystal structure, 1.90 Å” value was “the peracetate molecule was perfectly fitted into the electron-density map”.

“esterase (EaEST) from Exiguobacterium antarcticum B7 (enzyme)” showed a stoichiometry N in experiment [2] of 3.

The values are drawn from article PMC5268438, “Crystal Structure and Functional Characterization of an Esterase (EaEST) from Exiguobacterium antarcticum” (PLoS ONE, 2017).
